US20080194585A1, “Fungicidal Pyrazine Derivatives” (priority 2005, published 2008)
Marks after values point to notes of the source that are not given here.

Legend:
[1] = test system: Erysiphe graminis f. sp. tritici; test: Test L: wheat powdery mildew, preventive spray on wheat seedlings; conditions: 40 ppm (*)
[2] = test system: Septoria tritici; test: Test J: wheat leaf blotch, preventive spray on wheat seedlings; assay type: in vivo
From the text: A dash (-) indicates no test results.

[3] = test system: Colletotrichum orbiculare; test: Test B: cucumber Colletotrichum anthracnose, preventive spray on cucumber seedlings; conditions: 40 ppm (*)
[4] = test system: Rhizoctonia oryzae; test: Test G: turf brown patch, preventive spray on creeping bent grass seedlings; conditions: 40 ppm (*)
Description: (the causal agent of turf brown patch) and incubated in a saturated atmosphere at 27° C. for 24 h, and then moved to a growth chamber at 27° C. for 5 days, after which disease ratings were made.

[5] = test system: Plasmopara viticola; test: Test D: grape downy mildew, spray after inoculation of grape seedlings; assay type: in vivo
From the text: Upon removal, disease ratings were made. […] A dash (-) indicates no test results.

[6] = test system: Phytophthora infestans; test: whole plant or invertebrate; assay type: in vivo
[7] = test system: Puccinia recondita f. sp. tritici; test: Test K: wheat leaf rust, preventive spray on wheat seedlings; conditions: 40 ppm (*)
[8] = test system: Pythium aphanidermatum; test: Test A: bluegrass pythium blight, preventive spray on bluegrass seedlings
[9] = test system: fusarium graminearium; test: Test I: wheat head scab, preventive spray on wheat seedlings
Description: (the causal agent of wheat head scab) and incubated in a saturated atmosphere at 20° C. for 72 h, and then moved to a growth chamber at 22° C. for 5 days, after which disease ratings were made.

[10] = test system: Botrytis cinerea; test: Test E: tomato botrytis, preventive spray on tomato seedlings; conditions: 40 ppm (*)
[11] = test system: Septoria nodorum; test: Test H: wheat glum blotch, preventive spray on wheat seedlings; conditions: 40 ppm (*)
Description: (the causal agent of wheat glum blotch) and incubated in a saturated atmosphere at 20° C. for 48 h, and then moved to a growth chamber at 22° C. for 5 days, after which disease ratings were made.

[12] = test system: Sclerotinia sclerotiorum; test: Test C: cucumber white mold, preventive spray on cucumber seedlings

Compound	Test L disease control rating [1]	Test J disease control rating ([2]; 40 ppm (*))	Test B disease control rating [3]	Test G disease control rating [4]	Test D disease control rating ([5]; 200 ppm)	Test F disease control rating ([6]; 200 ppm)	Test K disease control rating [7]	Test A disease control rating ([8]; 200 ppm)	Test I disease control rating ([9]; 200 ppm)	Test E disease control rating [10]	Test H disease control rating [11]	Test C disease control rating ([12]; 200 ppm)	Test D disease control rating ([5]; 40 ppm (*))	Test F disease control rating ([6]; 40 ppm (*))	Test A disease control rating ([8]; 40 ppm (*))	Test I disease control rating ([9]; 40 ppm (*))	Test C disease control rating ([12]; 40 ppm (*))	Test J disease control rating ([2]; 200 ppm)
CC(C)Cn1c(-c2c(Cl)ccc(Cl)c2Cl)c(Cl)nc(-n2cncn2)c1=O [compound 120]	0* %	91* %	0* %	0* %	0%	0%	55* %	0%	86%	99* %	64* %	93%	–	–	–	–	–	–
COC(=O)Cn1c(-c2c(F)cccc2F)c(Cl)nc(-n2cccn2)c1=O [compound 122]	0* %	7* %	0* %	16* %	–	–	28* %	–	–	49* %	0* %	–	58* %	0* %	0* %	0* %	0* %	–
COC(=O)Cn1c(-c2c(F)cccc2F)c(Cl)nc(-n2cncn2)c1=O [compound 123]	0* %	19* %	0* %	0* %	–	–	0* %	–	–	0* %	0* %	–	0* %	0* %	0* %	0* %	0* %	–
O=c1c(-n2cccn2)nc(Cl)c(-c2c(F)cccc2F)n1CCCl [compound 124]	0* %	100* %	0* %	21* %	–	–	100* %	–	–	99* %	100* %	–	0* %	0* %	0* %	0* %	0* %	–
O=c1c(-n2cncn2)nc(Cl)c(-c2c(F)cccc2F)n1CCCl [compound 125]	0* %	71* %	0* %	0* %	–	–	55* %	–	–	0* %	0* %	–	0* %	0* %	0* %	0* %	0* %	–
CS(=O)(=O)CCn1c(-c2c(F)cccc2F)c(Cl)nc(-n2cccn2)c1=O [compound 126]	0* %	19* %	0* %	0* %	–	–	0* %	–	–	0* %	0* %	–	0* %	0* %	0* %	0* %	0* %	–
CS(=O)(=O)CCn1c(-c2c(F)cccc2F)c(Cl)nc(-n2cncn2)c1=O [compound 127]	0* %	–	0* %	0* %	–	–	0* %	–	–	0* %	0* %	–	0* %	0* %	0* %	0* %	0* %	16%
CC(C)Cn1c(Cc2ccccc2)c(Cl)nc(-n2cncn2)c1=O [compound 128]	0* %	0* %	0* %	0* %	–	–	0* %	–	–	0* %	0* %	–	0* %	0* %	0* %	0* %	0* %	–
CC(C)Cn1c(-c2cccc3ccccc23)c(Cl)nc(-n2cncn2)c1=O [compound 129]	0* %	19* %	0* %	0* %	–	–	0* %	–	–	0* %	0* %	–	0* %	0* %	0* %	0* %	0* %	–
CC(C)Cn1c(Cc2ccccc2)c(Cl)nc(-n2cccn2)c1=O [compound 130]	0* %	16* %	0* %	0* %	–	–	0* %	–	–	0* %	0* %	–	0* %	0* %	0* %	0* %	0* %	–
CC(C)Cn1c(-c2cccc3ccccc23)c(Cl)nc(-n2cccn2)c1=O [compound 131]	0* %	52* %	0* %	0* %	–	–	0* %	–	–	0* %	0* %	–	0* %	0* %	0* %	0* %	0* %	–
CC(C)Cn1c(C(C)c2ccccc2)c(Cl)nc(-n2cccn2)c1=O (stereo not drawn) [compound 132]	0* %	9* %	0* %	0* %	–	–	0* %	–	–	0* %	0* %	–	0* %	0* %	0* %	0* %	0* %	–
